Here are results for 20 molecules from publication PMC8658804, “Small Molecule CD38 Inhibitors: Synthesis of 8-Amino-N1-Inosine 5′-Monophosphate, Analogues and Early Structure-Activity Relationship” (Molecules (Basel, Switzerland), 2021).

Entries after “also recorded” stand apart in the source; their conditions may differ. Like-named read-outs stand apart in the source and are kept apart here.

Data set [1] concerns the target T1, CD38 (Homo sapiens, UniProt P28907).
T1 construct: incubating 1 mM cADPR with 2 mg/mL of CD38 for 10 min
T1 sequence (P28907 1-300): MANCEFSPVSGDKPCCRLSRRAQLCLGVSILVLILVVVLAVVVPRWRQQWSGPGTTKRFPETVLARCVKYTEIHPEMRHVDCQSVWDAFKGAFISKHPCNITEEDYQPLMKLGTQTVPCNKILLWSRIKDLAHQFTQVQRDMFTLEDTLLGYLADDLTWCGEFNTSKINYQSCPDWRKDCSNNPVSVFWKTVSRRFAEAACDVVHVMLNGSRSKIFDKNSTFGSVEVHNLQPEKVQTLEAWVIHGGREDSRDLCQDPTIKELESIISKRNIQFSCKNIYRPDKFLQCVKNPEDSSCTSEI
Description: Inhibition of CD38-catalyzed cADPR hydrolysis (fluorimetric cycling assay). Particulars: for inhibitory activity (IC50) of CD38-mediated cADPR hydrolysis / IC50: 1 mM cADPR, 2 mg/mL CD38, 10 min, pH 4.5, IC50 values >1000 μM are approximate; for IC50: read-out: inhibitory activity (IC50) of CD38-mediated cADPR hydrolysis. In kind it is biochemical. The procedure:
The inhibition of cADPR hydrolysis by various concentrations of inhibitor (0–1 mM) was determined by incubating 1 mM cADPR with 2 mg/mL of CD38 for 10 min at 20–24uC in 25 mM sodium acetate, pH 4.5. The reaction was stopped by the addition of 150 mM HCl. The precipitated protein was filtered, and the pH was neutralized with Tris base. After diluting the mixture 20-fold, the concentration of the unhydrolyzed cADPR present in the diluted reaction mixture was assayed by the fluorimetric cycling assay as previously described.[46]

Data set [2] addresses T2, shCD38 (CD38 catalytic domain) (Homo sapiens, UniProt P28907).
T2 construct: high concentrations of CD38 catalytic domain (shCD38) present in crystallography media
T2 sequence (P28907 43-300 limits assumed): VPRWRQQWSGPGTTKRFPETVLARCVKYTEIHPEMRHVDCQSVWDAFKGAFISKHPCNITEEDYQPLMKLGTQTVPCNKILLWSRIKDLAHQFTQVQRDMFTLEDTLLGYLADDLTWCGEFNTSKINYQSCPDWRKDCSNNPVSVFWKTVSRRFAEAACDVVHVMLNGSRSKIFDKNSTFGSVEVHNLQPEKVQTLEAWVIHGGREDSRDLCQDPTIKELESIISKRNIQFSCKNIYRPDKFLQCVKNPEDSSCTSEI
Kind of data set: Ligand hydrolysis by high concentrations of shCD38, monitored by RP-HPLC. In kind it is biochemical. Particulars: 1 mM ligand, 4 mg/mL shCD38. The procedure:
Indeed, 8-NH2-N9-butyl-cIDPR (6, Figure 2) was captured as the hydrolyzed product in the crystal structure with shCD38. […] Incubation of 11, 8-NH2-N1-IMP (1 mM final concentration) with 4 mg/mL shCD38 was monitored using RP-HPLC. The peak corresponding to 8-NH2-N1-IMP (RT = 10.5 min) reduced in intensity over time, alongside the appearance of a new peak (RT = 2.0 min) that was characteristic of an 8-amino substituted hypoxanthine analog (See Supplementary Information, Figure S1).
HPLC studies were carried out as previously described.[36] Briefly, the solution containing shCD38 was adjusted to the desired concentration using Tris-HCl buffer (20 mM, pH 8) and 50 μL was added to the inhibitor (0.05 μmole) in an Eppendorf tube at room temperature. At a given time point, a sample of 5 μL was removed and diluted with 95 μL MilliQ water. 10 μL Of this sample was injected directly into the analytical HPLC system (see General Experimental), eluting at 1 mL/min with an isocratic ion-pair buffer: 0.17% (m/v) cetrimide and 45% (v/v) phosphate buffer (pH 6.4) in MeOH.

For data set [3], the target named is T1, CD38. Particulars: N1-IMP fragments and 8-NH2-N1-cIDPR from earlier work; read-out: IC50, inhibition of CD38-catalyzed cADPR hydrolysis; cited from earlier work.
The nature of data set [4]: Solubility in the assay medium. In kind it is physicochemical. Particulars: CD38 assay medium.
The test system of the next data set is T-cells. The arrangement: method as in PMID 12932045, PMID 16967053. Particulars: compared with cADPR; cited from earlier work.

Regarding `[N-]=[N+]=Nc1nc2c(=O)n([C@@H]3O[C@H](CO)[C@@H](O)[C@H]3O)cnc2n1[C@@H]1O[C@H](CO)[C@@H](O)[C@H]1O` [Compound 16, N1-(β-D-ribofuranosyl)-8-azidoinosine], on CD38 [1], the “inhibitory activity on CD38-mediated cADPR hydrolysis, in words” value (shortened to “inhibitory activity … in words”) was “no activity” and the “inhibitory activity (IC50) of CD38-mediated cADPR hydrolysis” value (“inhibitory activity (IC50)” below) is “No activity”. `Nc1nc2c(=O)n([C@@H]3O[C@H](COP(=O)(O)O)[C@@H](O)[C@H]3O)cnc2[nH]1` [Compound 11, N1-(5′-O-Phosphoryl-β-D-ribofuranosyl)-8-aminohypoxanthine]: the “hydrolysis of ligand by shCD38 (RP-HPLC)” value in data set [2] is on record as “hydrolyzed more rapidly than cIDPR (2), but more slowly than 8-NH2-N9-butyl-cIDPR (6); also recorded: hydrolyzed at the N1-ribosyl bond”; in data set [2] (listed as 8-NH2-N1-IMP), “cleaved at high CD38 concentrations”. Besides, the IC50 on CD38 [3] is 7.6 ± 0.2 µM.

As to `NS(=O)(=O)OC[C@H]1O[C@@H](n2cnc3[nH]cnc3c2=O)[C@H](O)[C@@H]1O` [Compound 29, N1-(5′-O-sulfonamide-β-D-ribofuranosyl)-hypoxanthine], at CD38 [1], the “inhibitory activity … in words” value is “neither of the two analogues (28, 29) showed any activity” and the “inhibitory activity (IC50)” value was “No activity”. As for `O=c1c2nc(Br)n([C@@H]3O[C@H](CO)[C@@H](O)[C@H]3O)c2ncn1[C@@H]1O[C@H](CO)[C@@H](O)[C@H]1O` [Compound 14, N1-(β-D-Ribofuranosyl)-8-bromoinosine], at CD38 [1], the “inhibitory activity … in words” value is recorded as “no activity” and the “inhibitory activity (IC50)” value is recorded as “No activity”. Turning to `O=c1c2nc(Br)[nH]c2ncn1[C@@H]1O[C@H](COP(=O)(O)O)[C@@H](O)[C@H]1O` [Compound 10, N1-(5′-O-Phosphoryl-β-D-ribofuranosyl)-8-bromohypoxanthine], at CD38 [3], the IC50 was 201 ± 41 µM.

Consider `[N-]=[N+]=Nc1nc2c(=O)n([C@@H]3O[C@H](CO)[C@@H](O)[C@H]3O)cnc2n1CCCCO` [Compound 20, N1-(β-D-Ribofuranosyl)-N9-(4-hydroxybutyl)-8-azidohypoxanthine], for which the IC50 on CD38 [1] was about 9500 µM. In the case of `O=c1c2nc[nH]c2ncn1[C@@H]1O[C@H](COP(=O)(O)O)[C@@H](O)[C@H]1O` [Compound 9, N1-Inosine 5′-monophosphate], the IC50 on CD38 [3] was 14 ± 5 µM. Turning to `Nc1nc2c(=O)n3cnc2n1[C@@H]1O[C@H](COP(=O)(O)OP(=O)(O)OC[C@H]2O[C@@H]3[C@H](O)[C@@H]2O)[C@@H](O)[C@H]1O` [Compound 4, 8-NH2-N1-cIDPR, reference compound], on CD38 [3], the IC50 is 56 µM. `O=c1c2nc(Br)[nH]c2ncn1[C@H]1O[C@@H](COP(=O)(O)O)[C@H](O)[C@@H]1O` [Compound 26, N1-(5′-O-Phosphoryl-β-L-ribofuranosyl)-8-bromohypoxanthine]: the IC50 on CD38 [1] was found to be 230 ± 9 µM. For `Nc1nc2c(=O)n([C@@H]3O[C@H](CO)[C@@H](O)[C@H]3O)cnc2n1[C@@H]1O[C@H](CO)[C@@H](O)[C@H]1O` [Compound 17, N1-(β-D-ribofuranosyl)-8-aminoinosine], on CD38 [1], the “inhibitory activity … in words” value is “low mM inhibitory activity” and the IC50 is about 7600 µM. For `O=c1c2ncn(CCCCO)c2ncn1[C@@H]1O[C@H](CO)[C@@H](O)[C@H]1O` [Compound 19, N1-(β-D-Ribofuranosyl)-N9-(4-hydroxybutyl)-hypoxanthine], the IC50 at CD38 [1] is about 2300 µM.

As to `O=c1c2ncn([C@@H]3O[C@H](CO)[C@@H](O)[C@H]3O)c2ncn1[C@@H]1O[C@H](CO)[C@@H](O)[C@H]1O` [Compound 15, N1-(β-D-Ribofuranosyl)-inosine], on CD38 [1], the “inhibitory activity … in words” value is “low mM inhibitory activity” and the IC50 was about 7500 µM. Take `Nc1nc2c(=O)n([C@@H]3O[C@H](COP(=O)(O)O)[C@@H](O)[C@H]3O)cnc2n1CCCCO` [Compound 25, N1-(5′-O-Phosphoryl-β-D-ribofuranosyl)-N9-(4-hydroxybutyl)-8-aminohypoxanthine]: the IC50 at CD38 [1] came to 332 µM. For `O=c1c2ncn(CCCCO)c2ncn1[C@@H]1O[C@H](COP(=O)(O)O)[C@@H](O)[C@H]1O` [Compound 23, N1-(5′-O-Phosphoryl-β-D-ribofuranosyl)-N9-(4-hydroxybutyl)hypoxanthine], the IC50 at CD38 [1] amounted to 757 µM. Consider `O=c1c2nc(Br)n(CCCCO)c2ncn1[C@@H]1O[C@H](CO)[C@@H](O)[C@H]1O` [Compound 18, N1-(β-D-Ribofuranosyl)-N9-(4-hydroxybutyl)-8-bromohypoxanthine], for which, in data set [4], the “solubility in the assay medium” value is “insoluble in the assay medium”. As for `Nc1nc2c(=O)n([C@@H]3O[C@H](CO)[C@@H](O)[C@H]3O)cnc2n1CCCCO` [Compound 21, N1-(β-D-Ribofuranosyl)-N9-(4-hydroxybutyl)-8-aminohypoxanthine], the IC50 at CD38 [1] is about 3300 µM. In the case of `[N-]=[N+]=Nc1nc2c(=O)n([C@@H]3O[C@H](COP(=O)(O)O)[C@@H](O)[C@H]3O)cnc2n1CCCCO` [Compound 24, N1-(5′-O-Phosphoryl-β-D-ribofuranosyl)-N9-(4-hydroxybutyl)-8-azidohypoxanthine], the IC50 at CD38 [1] amounted to 201 µM. Consider `NS(=O)(=O)OC[C@H]1O[C@@H](n2cnc3[nH]c(Cl)nc3c2=O)[C@H](O)[C@@H]1O` [Compound 28, N1-(5′-O-sulfonamide-β-D-ribofuranosyl)-8-chlorohypoxanthine], for which, on CD38 [1], the “inhibitory activity … in words” value is recorded as “neither of the two analogues (28, 29) showed any activity” and the “inhibitory activity (IC50)” value is on record as “No activity”. As to `O=c1c2ncn3c2ncn1[C@@H]1O[C@H](COP(=O)(O)OP(=O)(O)OC[C@H]2O[C@@H]3[C@H](O)[C@@H]2O)[C@@H](O)[C@H]1O` [Compound 2, cyclic inosine 5′-diphosphoribose], in the data set on T-cells, the “Ca2+ release” value was “almost indistinguishably to that induced by cADPR”.

For `O=c1c2nc[nH]c2ncn1[C@H]1O[C@@H](COP(=O)(O)O)[C@H](O)[C@@H]1O` [Compound 27, N1-(5′-O-Phosphoryl-β-L-ribofuranosyl)-hypoxanthine], the IC50 at CD38 [1] came to 460 µM. Besides, the “fold reduction in activity compared to parent / D-ribose N1-IMP counterpart” value on CD38 [1] (ratio of IC50 values) is listed as 30 fold.

A word on the IC50: it is the point on the concentration scale where inhibition reaches its midpoint.
